The results in this text go back to patent US20190315806A1, “POLYMYXIN DERIVATIVE, PREPARATION METHOD AND APPLICATION THEREOF” (priority 2016, published 2019).

Values after ≈ are worked out from the molar mass of the structure shown. Where a SMILES comes first, the peptide text is derived from it. Bridges are numbered along the chain shown (N, C = ends). [ ]: non-standard residue; d: D form. The star is where a group is joined. Heptanoyl(6-Me) = CC(C)CCCCC(=O)*; dDab = NCC[C@@H](N)C(=O)O; Octanoyl = CCCCCCCC(=O)*; Dab = NCC[C@H](N)C(=O)O Where only a bound is given, the exact number is not on record here.

What all share (assay type): cell-based
The subject of assay [1] is Klebsiella pneumoniae ATCC BAA-2146 (NDM-1). Description: Antibacterial activity, MIC by dish double dilution method. Conditions: ATCC BAA-2146. In outline:
(§1)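 MIC by CLSI agar (plate) twofold dilution, final compound levels 0.03–128 μg/mL in agar. Overnight cultures in nutrient broth, brain heart infusion or HTM broth were spotted at 10^4 CFU/dot by multipoint inoculator. After 18 to 24 hours at 35° C., MIC taken as lowest concentration showing no colony growth.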

Assay [2] relates to Staphylococcus epidermidis ATCC 12228. Conditions: ATCC 12228. In outline: as §1
For assay [3], the system named is Pseudomonas aeruginosa ATCC 27853. Conditions: ATCC 27853. A digest of the protocol:
as §1

Assay [4] deals with Acinetobacter baumannii ATCC 19606. The settings on record: ATCC 19606. A digest of the protocol:
as §1

In assay [5] the test system is Escherichia coli ATCC 25922. The settings on record: ATCC 25922. In outline:
as §1

As for `CCCCCCCC(=O)N[C@@H](CCN)C(=O)N[C@H](C(=O)N[C@@H](CCN)C(=O)N[C@H]1CCNC(=O)[C@H]([C@@H](C)O)NC(=O)[C@H](CCN)NC(=O)[C@H](CCN)NC(=O)[C@H]([C@@H](C)O)NC(=O)[C@@H](CC(C)C)NC(=O)[C@H](CCN)NC1=O)[C@@H](C)O` [Compound 104, octanoyl-Dab-Thr-Dab-ring(4-10)[Dab-Dab-D-Leu-Thr-Dab-Dab-Thr]] (Octanoyl-[Dab]T[Dab][Dab][Dab][dL]T[Dab][Dab]T; lactam 4-C), the “MIC K. pneumoniae ATCC BAA-2146 (NDM-1)” value in assay [1] came out at 0.5 µg/mL (≈ 0.437 µM). Also, the “MIC S. epidermidis ATCC 12228” value in assay [2] was 64 µg/mL (≈ 56 µM). In addition, the “MIC P. aeruginosa ATCC 27853” value in assay [3] is 1 µg/mL (≈ 0.875 µM). The “MIC A. baumannii ATCC 19606” value in assay [4] worked out at 0.5 µg/mL (≈ 0.437 µM). In addition, in assay [5], the “MIC E. coli ATCC 25922” value amounted to 0.25 µg/mL (≈ 0.219 µM).

Turning to `CCCCCCCC(=O)N[C@@H](CCN)C(=O)N[C@H](C(=O)N[C@@H](CCN)C(=O)N[C@H]1CCNC(=O)[C@H](CO)NC(=O)[C@H](CCN)NC(=O)[C@H](CCN)NC(=O)[C@H]([C@@H](C)O)NC(=O)[C@@H](CC(C)C)NC(=O)[C@H](CCN)NC1=O)[C@@H](C)O` [Compound 109, octanoyl-Dab-Thr-Dab-ring(4-10)[Dab-Dab-D-Leu-Thr-Dab-Dab-Ser]] (Octanoyl-[Dab]T[Dab][Dab][Dab][dL]T[Dab][Dab]S; lactam 4-C), in assay [1], the “MIC K. pneumoniae ATCC BAA-2146 (NDM-1)” value turned out to be 2 µg/mL (≈ 1.77 µM). Besides, the “MIC S. epidermidis ATCC 12228” value in assay [2] was greater than 128 µg/mL. In addition, the “MIC P. aeruginosa ATCC 27853” value in assay [3] amounted to 1 µg/mL (≈ 0.885 µM). For the same molecule, in assay [4], the “MIC A. baumannii ATCC 19606” value was 16 µg/mL (≈ 14.2 µM). In assay [5], the “MIC E. coli ATCC 25922” value is 1 µg/mL (≈ 0.885 µM).

Take `CCCCCCCC(=O)N[C@@H](CCN)C(=O)N[C@H](C(=O)N[C@@H](CO)C(=O)N[C@H]1CCNC(=O)[C@H]([C@@H](C)O)NC(=O)[C@H](CCN)NC(=O)[C@H](CCN)NC(=O)[C@H]([C@@H](C)O)NC(=O)[C@@H](CC(C)C)NC(=O)[C@H](CCN)NC1=O)[C@@H](C)O` [Compound 111, octanoyl-Dab-Thr-Ser-ring(4-10)[Dab-Dab-D-Leu-Thr-Dab-Dab-Thr]] (Octanoyl-[Dab]TS[Dab][Dab][dL]T[Dab][Dab]T; lactam 4-C): in assay [1], the “MIC K. pneumoniae ATCC BAA-2146 (NDM-1)” value amounted to 0.5 µg/mL (≈ 0.442 µM). In assay [2], the “MIC S. epidermidis ATCC 12228” value turned out to be 64 µg/mL (≈ 56.6 µM). In addition, the “MIC P. aeruginosa ATCC 27853” value in assay [3] is 1 µg/mL (≈ 0.885 µM). For the same molecule, the “MIC A. baumannii ATCC 19606” value in assay [4] amounted to 1 µg/mL (≈ 0.885 µM). Also, the “MIC E. coli ATCC 25922” value in assay [5] stood at 0.5 µg/mL (≈ 0.442 µM).

As for `CCCCCCCC(=O)N[C@@H](CCN)C(=O)N[C@H](C(=O)N[C@H](CO)C(=O)N[C@H]1CCNC(=O)[C@H]([C@@H](C)O)NC(=O)[C@H](CCN)NC(=O)[C@H](CCN)NC(=O)[C@H]([C@@H](C)O)NC(=O)[C@@H](Cc2ccccc2)NC(=O)[C@H](CCN)NC1=O)[C@@H](C)O` [Compound 117, octanoyl-Dab-Thr-D-Ser-ring(4-10)[Dab-Dab-D-Phe-Thr-Dab-Dab-Thr]] (Octanoyl-[Dab]T[dS][Dab][Dab][dF]T[Dab][Dab]T; lactam 4-C), the “MIC K. pneumoniae ATCC BAA-2146 (NDM-1)” value in assay [1] is 0.5 µg/mL (≈ 0.429 µM). In addition, in assay [2], the “MIC S. epidermidis ATCC 12228” value was greater than 128 µg/mL. Further, the “MIC P. aeruginosa ATCC 27853” value in assay [3] was 2 µg/mL (≈ 1.72 µM). Besides, the “MIC A. baumannii ATCC 19606” value in assay [4] was found to be 0.25 µg/mL (≈ 0.215 µM). In assay [5], the “MIC E. coli ATCC 25922” value came out at 0.5 µg/mL (≈ 0.429 µM).

Turning to `CCCCCCCC(=O)N[C@@H](CCN)C(=O)N[C@H](C(=O)N[C@@H](CCN)C(=O)N[C@H]1CCNC(=O)[C@H](CC(C)C)NC(=O)[C@H](CCN)NC(=O)[C@H](CCN)NC(=O)[C@H](CC(C)C)NC(=O)[C@@H](Cc2ccccc2)NC(=O)[C@H](CCN)NC1=O)[C@@H](C)O` [Compound 129, octanoyl-Dab-Thr-Dab-ring(4-10)[Dab-Dab-D-Phe-Lue-Dab-Dab-Lue]] (Octanoyl-[Dab]T[Dab][Dab][Dab][dF]L[Dab][Dab]L; lactam 4-C), the “MIC K. pneumoniae ATCC BAA-2146 (NDM-1)” value in assay [1] came out at 4 µg/mL (≈ 3.33 µM). Moreover, the “MIC S. epidermidis ATCC 12228” value in assay [2] is 8 µg/mL (≈ 6.66 µM). For the same molecule, the “MIC P. aeruginosa ATCC 27853” value in assay [3] was found to be 4 µg/mL (≈ 3.33 µM). For the same molecule, the “MIC A. baumannii ATCC 19606” value in assay [4] came out at 4 µg/mL (≈ 3.33 µM). Moreover, the “MIC E. coli ATCC 25922” value in assay [5] is 4 µg/mL (≈ 3.33 µM).

For the molecule `CC(C)CCCCC(=O)N[C@@H](CCN)C(=O)N[C@H](C(=O)N[C@H](CCN)C(=O)N[C@H]1CCNC(=O)[C@H]([C@@H](C)O)NC(=O)[C@H](CCN)NC(=O)[C@H](CCN)NC(=O)[C@H]([C@@H](C)O)NC(=O)[C@@H](Cc2ccccc2)NC(=O)[C@H](CCN)NC1=O)[C@@H](C)O` [Compound 144, 6-methylheptanoyl-Dab-Thr-D-Dab-ring(4-10)[Dab-Dab-D-Phe-Thr-Dab-Dab-Thr]] ({Heptanoyl(6-Me)}-[Dab]T[dDab][Dab][Dab][dF]T[Dab][Dab]T; lactam 4-C), the “MIC K. pneumoniae ATCC BAA-2146 (NDM-1)” value in assay [1] came out at 1 µg/mL (≈ 0.849 µM). Also, the “MIC S. epidermidis ATCC 12228” value in assay [2] is greater than 128 µg/mL. Further, the “MIC P. aeruginosa ATCC 27853” value in assay [3] stood at 1 µg/mL (≈ 0.849 µM). For the same molecule, the “MIC A. baumannii ATCC 19606” value in assay [4] turned out to be 1 µg/mL (≈ 0.849 µM). In addition, in assay [5], the “MIC E. coli ATCC 25922” value stood at 0.5 µg/mL (≈ 0.425 µM).
